The results in this text go back to US11420966B2 (ACLARIS THERAPEUTICS, INC., priority 2019, dated 2022).

In one assay the target is JAK1 (Homo sapiens (Human), UniProt P23458). Nature of the assay: JAK1 enzyme activity assay (Thermo Fisher SelectScreen, Z-lyte). It is filed as biochemical. As to conditions: read-out: JAK1 Inhibition IC50. An outline of the steps: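 Z-lyte assay with 21.2-91.5 ng JAK and […] Tyr 06 in 50 mM HEPES pH 7.0, 10 mM MgCl2, 1 mM EGTA, 0.01% BRIJ-35; 1 h kinase reaction, then development reagent. 11-point dose-response from […] to 0.34 nM, 2% DMSO vehicle; IC50 from 4-parameter logistic fit of emission ratio.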

In another assay the target is JAK2 (Homo sapiens (Human), UniProt O60674). In words: JAK2 enzyme activity assay (Thermo Fisher SelectScreen, Z-lyte). As to conditions: read-out: JAK2 Inhibition IC50. It is filed as biochemical. The method, boiled down:
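IC50 values derive from a 4-parameter logistic fit of emission ratio across an 11-point series ([…] to 0.34 nM, 2% DMSO vehicle). Reaction: 1 h, 0.12-0.5 ng JAK2, […] Tyr 06 in HEPES pH 7.5 buffer with MgCl2, EGTA, BRIJ-35, read by Z-lyte development.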

The next assay deals with JAK3 (a.a. 781-1124) (Homo sapiens (Human), UniProt P52333). Nature of the assay: JAK3 enzyme activity assay (SRCtide phosphorylation, Caliper). It is filed as biochemical. As to conditions: 1 uM ATP; read-out: JAK3 Inhibition IC50.
A further assay deals with Tyk-2 (Homo sapiens (Human), UniProt P29597). Nature of the assay: Tyk-2 enzyme activity assay (Thermo Fisher SelectScreen, Z-lyte). The assay is classed as biochemical. As to conditions: read-out: Tyk-2 Inhibition IC50. The method, boiled down:
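Z-lyte FRET assay: 3.75–15 ng TYK2 with […] Tyr 03 peptide in HEPES pH 7.0, MgCl2, EGTA, BRIJ-35; 1 h reaction, then development reagent. 11-point dose-response, 2% DMSO; IC50 via 4-parameter fit of emission ratio, background without enzyme.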

For assay [1], the system named is IL-2 stimulated STAT5 phosphorylation on Tyr694 (JAK1/3). Nature of the assay: JAK1/3 cellular target modulation: IL-2 stimulated phospho-STAT5 in PBMC. It is filed as cell-based. As to conditions: human PBMC, IL-2 25 ng/ml; read-out: IL2-STAT5 IC50. The method, boiled down:
(§1)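 Thawed human PBMC (200,000/well, RPMI/10% FBS) were preincubated with compound for 1 h at 37 °C, added from 10× stocks in 1% DMSO. Stimulation and read-out: IL-2 25 ng/ml, 5 min, pSTAT5 by MSD; IL-12 1.7 ng/ml, 25 min, pSTAT4 by MSD; IFNγ 10 ng/ml, 10 min, pSTAT1 by sandwich ELISA.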

Assay [2] concerns IFNγ stimulated STAT1 phosphorylation on Tyr701 (JAK1/2). In words: JAK1/2 cellular target modulation: IFNγ stimulated phospho-STAT1 in PBMC. The assay is classed as cell-based. As to conditions: human PBMC, IFNγ 10 ng/ml; read-out: Infγ-STAT1 IC50. The method, boiled down: as §1
For assay [3], the system named is IL-12 stimulated STAT4 phosphorylation on Tyr693 (JAK2/TYK2). Nature of the assay: JAK2/TYK2 cellular target modulation: IL-12 stimulated phospho-STAT4 in PBMC. As to conditions: human PBMC, IL-12 1.7 ng/ml; read-out: IL12-STAT4 IC50. It is filed as cell-based. From the text:
JAK Cellular Target Modulation Assays
Target modulation was based upon the ability of a compound to inhibit JAK isoform specific phosphorylation of selected substrates. IL-2 stimulated STAT5 phosphorylation on Tyr694 was used to assess JAK1/3 compound selectivity. GM-CSF stimulated STAT5 phosphorylation on Tyr694 was used to assess JAK2 compound selectivity. IFNγ stimulated STAT1 phosphorylation on Tyr701 was used to assess JAK1/2 compound selectivity. IL-12 stimulated STAT4 phosphorylation on Tyr693 was used to assess JAK2/TYK2 compound selectivity. For all four assays, human PBMC from frozen stocks were thawed, pelleted, resuspended in complete media (90% RPMI, 10% heat inactivated FBS, 10 mM HEPES, 47 μM 2-ME, pen/strep) and placed in wells of a 96 well V-bottom plate at 200,000 per well in 120 μl complete media. Compounds were added as 15 μl per well of 10× working stock solutions in complete media with 1% DMSO (or medium with 1% DMSO for controls) and placed on a plate shaker in a 37° C. incubator with 5% CO2 for 1 hour with gentle shaking (setting of 3). Stimulation used the addition of soluble cytokines. For the JAK1/3 phospho-STAT5 assay, 15 μl of 10× working stock recombinant human IL-2 was added to a final concentration of 25 ng/ml. For the JAK2 phospho-STAT5 assay, 15 μl of 10× working stock recombinant human GM-CSF was added to a final concentration of 5 ng/ml. For the JAK1/2 phospho-STAT1 assay, 15 μl of 10× working stock of recombinant human IFNγ was added to a final concentration of 10 ng/ml. For the JAK2/TYK2 phospho-STAT4 assay, 15 μl of 10× working stock of recombinant human IL-12 was added to a final concentration of 1.7 ng/ml. Plates were then placed back on the plate shaker in the incubator for an additional 5, 5, 10, and 25 minutes respectively upon which the plates were removed from the incubator, sealed with a plate sealer and the cells pelleted at 400×g for 5 minutes. After pelleting, the media was removed by aspiration and the cells were lysed in assay specific cell lysis buffer. The levels of phospho-STATS were determined using a Phospho (Tyr694) STAT5a,b Whole Cell Lysate kit from Meso Scale Discovery. Levels of phospho-STAT1 were determined using a CST-PathScan Phospho-STAT1 (Tyr701) Sandwich ELISA kit. Levels of phospho-STAT4 were determined using a Phospho-STAT4 (Tyr693) Whole Cell Lysate kit from Meso Scale Discovery.

SMILES strings stand for the structures.

JAK3 (a.a. 781-1124), sequence (P52333 781-1124): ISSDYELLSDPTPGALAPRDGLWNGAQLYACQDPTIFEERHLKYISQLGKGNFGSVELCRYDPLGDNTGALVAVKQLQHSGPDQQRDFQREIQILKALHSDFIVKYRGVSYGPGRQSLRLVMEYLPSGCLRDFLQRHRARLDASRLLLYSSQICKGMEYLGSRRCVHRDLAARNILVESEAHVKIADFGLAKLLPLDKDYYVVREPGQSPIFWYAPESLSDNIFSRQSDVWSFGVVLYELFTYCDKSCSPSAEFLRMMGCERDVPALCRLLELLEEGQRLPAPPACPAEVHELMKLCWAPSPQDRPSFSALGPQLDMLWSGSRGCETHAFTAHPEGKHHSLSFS
JAK1, sequence (P23458 whole entry): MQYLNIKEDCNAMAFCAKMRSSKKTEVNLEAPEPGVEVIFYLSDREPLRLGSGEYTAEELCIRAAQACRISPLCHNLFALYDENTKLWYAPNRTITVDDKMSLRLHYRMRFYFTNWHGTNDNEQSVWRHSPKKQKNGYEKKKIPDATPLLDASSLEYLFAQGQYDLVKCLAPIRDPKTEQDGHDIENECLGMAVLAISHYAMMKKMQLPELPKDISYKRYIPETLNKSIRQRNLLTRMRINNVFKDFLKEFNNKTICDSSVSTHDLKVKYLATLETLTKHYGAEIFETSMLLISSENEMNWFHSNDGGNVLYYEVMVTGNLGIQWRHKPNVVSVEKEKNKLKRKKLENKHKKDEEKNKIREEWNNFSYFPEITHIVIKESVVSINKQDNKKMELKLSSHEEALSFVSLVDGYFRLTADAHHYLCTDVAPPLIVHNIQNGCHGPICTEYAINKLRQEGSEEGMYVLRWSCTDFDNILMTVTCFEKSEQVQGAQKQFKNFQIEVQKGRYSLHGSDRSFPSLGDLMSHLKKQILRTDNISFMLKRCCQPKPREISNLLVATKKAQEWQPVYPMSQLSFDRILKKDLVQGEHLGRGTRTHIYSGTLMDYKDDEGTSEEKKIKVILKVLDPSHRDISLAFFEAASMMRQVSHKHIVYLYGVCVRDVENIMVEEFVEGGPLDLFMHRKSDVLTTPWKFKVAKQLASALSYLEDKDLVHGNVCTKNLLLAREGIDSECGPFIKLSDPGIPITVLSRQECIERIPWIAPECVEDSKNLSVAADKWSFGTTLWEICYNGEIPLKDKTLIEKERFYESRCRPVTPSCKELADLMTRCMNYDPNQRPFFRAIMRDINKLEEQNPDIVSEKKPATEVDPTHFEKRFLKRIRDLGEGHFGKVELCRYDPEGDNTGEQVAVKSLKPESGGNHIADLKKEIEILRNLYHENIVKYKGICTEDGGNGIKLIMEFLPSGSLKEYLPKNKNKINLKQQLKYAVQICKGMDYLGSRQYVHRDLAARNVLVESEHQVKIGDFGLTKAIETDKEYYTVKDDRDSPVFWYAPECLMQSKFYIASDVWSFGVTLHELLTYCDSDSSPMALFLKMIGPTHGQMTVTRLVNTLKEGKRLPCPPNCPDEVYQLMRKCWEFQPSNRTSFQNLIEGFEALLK
Tyk-2, sequence (P29597 whole entry): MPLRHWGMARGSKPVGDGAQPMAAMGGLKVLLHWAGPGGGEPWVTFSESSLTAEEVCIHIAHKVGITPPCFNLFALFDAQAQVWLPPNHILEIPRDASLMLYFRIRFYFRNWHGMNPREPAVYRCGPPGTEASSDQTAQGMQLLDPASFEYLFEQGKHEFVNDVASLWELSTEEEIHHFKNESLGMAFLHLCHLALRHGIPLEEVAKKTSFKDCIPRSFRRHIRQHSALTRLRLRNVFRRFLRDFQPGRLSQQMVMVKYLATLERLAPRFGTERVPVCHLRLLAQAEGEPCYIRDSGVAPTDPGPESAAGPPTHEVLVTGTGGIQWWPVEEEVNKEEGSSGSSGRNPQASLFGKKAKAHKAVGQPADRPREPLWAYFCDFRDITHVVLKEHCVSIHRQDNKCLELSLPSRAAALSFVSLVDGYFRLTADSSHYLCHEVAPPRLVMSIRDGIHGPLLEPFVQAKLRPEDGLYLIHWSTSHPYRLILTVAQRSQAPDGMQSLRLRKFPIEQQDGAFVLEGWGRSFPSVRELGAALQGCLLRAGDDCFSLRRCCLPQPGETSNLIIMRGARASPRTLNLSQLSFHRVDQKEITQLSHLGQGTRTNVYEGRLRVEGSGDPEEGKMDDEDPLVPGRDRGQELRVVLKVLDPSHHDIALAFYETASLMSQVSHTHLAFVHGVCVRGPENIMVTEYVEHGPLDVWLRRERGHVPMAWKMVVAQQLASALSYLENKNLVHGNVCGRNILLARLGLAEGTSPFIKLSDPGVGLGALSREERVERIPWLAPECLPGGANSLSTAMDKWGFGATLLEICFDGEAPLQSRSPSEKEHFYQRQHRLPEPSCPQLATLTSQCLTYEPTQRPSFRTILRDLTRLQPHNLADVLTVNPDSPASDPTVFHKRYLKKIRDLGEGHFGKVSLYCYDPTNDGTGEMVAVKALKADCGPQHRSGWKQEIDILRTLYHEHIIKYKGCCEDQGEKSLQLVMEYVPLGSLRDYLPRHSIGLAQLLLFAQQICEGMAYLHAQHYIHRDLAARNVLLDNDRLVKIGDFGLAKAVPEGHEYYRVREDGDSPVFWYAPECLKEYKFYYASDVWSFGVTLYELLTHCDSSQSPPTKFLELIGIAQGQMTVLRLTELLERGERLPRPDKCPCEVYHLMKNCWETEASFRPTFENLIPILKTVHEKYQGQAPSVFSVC
JAK2, sequence (O60674 whole entry): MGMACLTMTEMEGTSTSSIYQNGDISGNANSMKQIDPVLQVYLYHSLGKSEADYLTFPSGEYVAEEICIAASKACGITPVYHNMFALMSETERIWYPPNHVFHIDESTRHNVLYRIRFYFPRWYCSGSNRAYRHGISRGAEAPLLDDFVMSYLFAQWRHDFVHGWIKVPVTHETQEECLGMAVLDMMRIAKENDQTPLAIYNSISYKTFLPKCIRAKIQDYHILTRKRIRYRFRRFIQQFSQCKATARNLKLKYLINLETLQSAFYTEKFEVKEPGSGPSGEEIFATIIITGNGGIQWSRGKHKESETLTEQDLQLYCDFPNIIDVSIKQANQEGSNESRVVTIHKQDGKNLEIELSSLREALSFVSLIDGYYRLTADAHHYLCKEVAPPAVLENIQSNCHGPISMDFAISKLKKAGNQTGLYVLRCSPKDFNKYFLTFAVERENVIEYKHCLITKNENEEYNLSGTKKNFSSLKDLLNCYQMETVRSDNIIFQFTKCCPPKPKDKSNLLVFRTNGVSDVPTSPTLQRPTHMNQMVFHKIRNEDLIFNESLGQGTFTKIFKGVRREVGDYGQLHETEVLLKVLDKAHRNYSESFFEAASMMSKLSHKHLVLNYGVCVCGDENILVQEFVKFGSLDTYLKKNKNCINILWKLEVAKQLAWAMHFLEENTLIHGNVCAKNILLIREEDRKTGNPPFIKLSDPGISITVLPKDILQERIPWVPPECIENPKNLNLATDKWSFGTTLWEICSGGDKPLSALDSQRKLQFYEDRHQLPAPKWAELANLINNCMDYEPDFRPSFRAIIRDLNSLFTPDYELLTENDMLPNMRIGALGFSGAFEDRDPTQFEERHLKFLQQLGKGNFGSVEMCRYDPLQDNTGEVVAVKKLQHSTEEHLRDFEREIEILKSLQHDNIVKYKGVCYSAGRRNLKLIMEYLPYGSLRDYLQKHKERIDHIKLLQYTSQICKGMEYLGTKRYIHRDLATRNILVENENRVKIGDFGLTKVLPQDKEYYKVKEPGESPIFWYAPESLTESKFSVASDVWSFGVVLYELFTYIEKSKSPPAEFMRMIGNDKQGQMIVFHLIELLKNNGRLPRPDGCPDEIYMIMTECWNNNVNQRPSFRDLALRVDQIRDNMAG

Regarding `C[C@H]1CC[C@@H](Nc2c(-c3ncco3)cnc3[nH]ccc23)CN1C(=O)CC#N` [Example 28, 3-((2S,5R)-2-methyl-5-((5-(oxazol-2-yl)-1H-pyrrolo[2,3-b]pyridin-4-yl)amino)piperidin-1-yl)-3-oxopropanenitrile], the IC50 (commonly the midpoint of a concentration-inhibition curve) was ≤ 10 nM on JAK1; ≤ 10 nM on JAK2; ≤ 10 nM at JAK3 (a.a. 781-1124); ≤ 10 nM at Tyk-2; ≤ 100 nM in assay [1]; ≤ 100 nM in assay [2]. The IC50 in assay [3] lay in the range of 100 to 1000 nM.
With `NC(=O)c1coc(-c2cnc3[nH]ccc3c2N[C@H]2CC[C@@H](O)C2)n1` [Example 29, 2-(4-(((1S,3R)-3-hydroxycyclopentyl)amino)-1H-pyrrolo[2,3-b]pyridin-5-yl)oxazole-4-carboxamide], the IC50 was 10 to 100 nM on JAK1; 10 to 100 nM at JAK2; ≤ 10 nM at JAK3 (a.a. 781-1124); 100 to 1000 nM at Tyk-2; ≤ 100 nM in assay [1]; 100 to 1000 nM in assay [2]. Further, in assay [3], the IC50 is > 1000 nM.
Regarding `CNC(=O)c1coc(-c2cnc3[nH]ccc3c2N[C@@H]2CC[C@H](C)N(C(=O)CC#N)C2)n1` [Example 30, 2-(4-(((3R,6S)-1-(2-cyanoacetyl)-6-methylpiperidin-3-yl)amino)-1H-pyrrolo[2,3-b]pyridin-5-yl)-N-methyloxazole-4-carboxamide], the half-maximal inhibitory concentration (IC50) is ≤ 10 nM on JAK1; ≤ 10 nM on JAK2; 100 to 1000 nM on JAK3 (a.a. 781-1124); ≤ 10 nM at Tyk-2; 100 to 1000 nM in assay [1]; 100 to 1000 nM in assay [2]. Also, the IC50 in assay [3] is > 1000 nM.
As to `CNC(=O)c1coc(-c2cnc3[nH]ccc3c2N[C@@H]2CCCN(C(=O)CC#N)C2)n1` [Example 33, (R)-2-(4-((1-(2-cyanoacetyl)piperidin-3-yl)amino)-1H-pyrrolo[2,3-b]pyridin-5-yl)-N-methyloxazole-4-carboxamide], the IC50 is ≤ 10 nM on JAK1; 10 to 100 nM at JAK2; ≤ 10 nM at JAK3 (a.a. 781-1124); 10 to 100 nM on Tyk-2; ≤ 100 nM in assay [1]; 100 to 1000 nM in assay [2]. Further, the concentration for half-maximal inhibition (IC50) in assay [3] was > 1000 nM.
As to `CN(C)C(=O)c1coc(-c2cnc3[nH]ccc3c2N[C@@H]2CCCN(C(=O)CC#N)C2)n1` [Example 34, (R)-2-(4-((1-(2-cyanoacetyl)piperidin-3-yl)amino)-1H-pyrrolo[2,3-b]pyridin-5-yl)-N,N-dimethyl-oxazole-4-carboxamide], the IC50 was ≤ 10 nM at JAK1; 10 to 100 nM at JAK2; ≤ 10 nM on JAK3 (a.a. 781-1124); 10 to 100 nM on Tyk-2; 100 to 1000 nM in assay [1]; 100 to 1000 nM in assay [2]. For the same compound, in assay [3], the IC50 is > 1000 nM.
In the case of `Cc1cnc(-c2cnc3[nH]ccc3c2N[C@@H]2CCCN(C(=O)CC#N)C2)o1` [Example 36, (R)-3-(3-((5-(5-methyloxazol-2-yl)-1H-pyrrolo[2,3-b]pyridin-4-yl)amino)piperidin-1-yl)-3-oxopropanenitrile], the IC50 was ≤ 10 nM on JAK1; ≤ 10 nM at JAK2; ≤ 10 nM at JAK3 (a.a. 781-1124); ≤ 10 nM on Tyk-2; ≤ 100 nM in assay [1]; ≤ 100 nM in assay [2]. The IC50 in assay [3] was in the range of 100 to 1000 nM.
On to `Cc1cnc(-c2cnc3[nH]ccc3c2N[C@@H]2CCCN(CCC#N)C2)o1` [Example 37, (R)-3-(3-((5-(5-methyloxazol-2-yl)-1H-pyrrolo[2,3-b]pyridin-4-yl)amino)piperidin-1-yl)propanenitrile], for which the IC50 on JAK1 was ≤ 10 nM; at JAK2, 10 to 100 nM; on JAK3 (a.a. 781-1124), ≤ 10 nM; at Tyk-2 it was 10 to 100 nM; in assay [1], ≤ 100 nM; in assay [2], 100 to 1000 nM. Besides, the IC50 in assay [3] was > 1000 nM.
For `N#CCC(=O)N1CCC[C@@H](Nc2c(-c3ncon3)cnc3[nH]ccc23)C1` [Example 38, (R)-3-(3-((5-(1,2,4-oxadiazol-3-yl)-1H-pyrrolo[2,3-b]pyridin-4-yl)amino)piperidin-1-yl)-3-oxopropanenitrile], the IC50 on JAK1 is 10 to 100 nM; at JAK2 it was 10 to 100 nM; at JAK3 (a.a. 781-1124), 10 to 100 nM; on Tyk-2, 100 to 1000 nM; in assay [1], 100 to 1000 nM; in assay [2] it was > 1000 nM. Moreover, the IC50 in assay [3] is > 1000 nM.
`C[C@H]1C[C@@H](Nc2c(-c3ccn(C(F)F)n3)cnc3[nH]ccc23)CN(C(=O)CC#N)C1` [Example 40, 3-((3R,5S)-3-((5-(1-(difluoromethyl)-1H-pyrazol-3-yl)-1H-pyrrolo[2,3-b]pyridin-4-yl)amino)-5-methylpiperidin-1-yl)-3-oxopropanenitrile]: the IC50 at JAK1 was ≤ 10 nM; at JAK2 it was ≤ 10 nM; on JAK3 (a.a. 781-1124), ≤ 10 nM; at Tyk-2, ≤ 10 nM; in assay [1], ≤ 100 nM; in assay [2], ≤ 100 nM. Further, in assay [3], the IC50 was ≤ 100 nM.
Turning to `N#CCC(=O)N1CCC[C@@H](Nc2c(-c3ccsn3)cnc3[nH]ccc23)C1` [Example 41, (R)-3-(3-((5-(isothiazol-3-yl)-1H-pyrrolo[2,3-b]pyridin-4-yl)amino)piperidin-1-yl)-3-oxopropanenitrile], the IC50 at JAK1 was ≤ 10 nM; on JAK2 it was ≤ 10 nM; on JAK3 (a.a. 781-1124), ≤ 10 nM; at Tyk-2, ≤ 10 nM; in assay [1] it was ≤ 100 nM; in assay [2], 100 to 1000 nM. The IC50 in assay [3] fell in the range of 100 to 1000 nM.
Consider `CCOC(=O)c1cnc(-c2cnc3[nH]ccc3c2N[C@@H]2CCCN(C(=O)CC#N)C2)s1` [Example 42, ethyl (R)-2-(4-((1-(2-cyanoacetyl)piperidin-3-yl)amino)-1H-pyrrolo[2,3-b]pyridin-5-yl)thiazole-5-carboxylate], for which the IC50 is ≤ 10 nM at JAK1; ≤ 10 nM on JAK2; ≤ 10 nM on JAK3 (a.a. 781-1124); ≤ 10 nM at Tyk-2; ≤ 100 nM in assay [1]; 100 to 1000 nM in assay [2]. The IC50 in assay [3] was 100 to 1000 nM.
For `COc1nccc(-c2cnc3[nH]ccc3c2N[C@@H]2CCCN(C(=O)CC#N)C2)n1` [Example 43, (R)-3-(3-((5-(2-methoxypyrimidin-4-yl)-1H-pyrrolo[2,3-b]pyridin-4-yl)amino)piperidin-1-yl)-3-oxopropanenitrile], the IC50 at JAK1 is ≤ 10 nM; at JAK2 it was 10 to 100 nM; on JAK3 (a.a. 781-1124), 10 to 100 nM; on Tyk-2, 10 to 100 nM; in assay [1], ≤ 100 nM; in assay [2], 100 to 1000 nM. The IC50 in assay [3] is > 1000 nM.
